According to ChEMBL document CHEMBL4004831, “Naphthalene diimide-polyamine hybrids as antiproliferative agents: Focus on the architecture of the polyamine chains” (Eur J Med Chem, 2017):

Legend:
Assay type in all cases: functional
NCI/ADR-RES = assay: Growth inhibition of human NCI-ADR-RES cells incubated for 48 hrs by sulforhodamine B assay
NCI-H522 = assay: Growth inhibition of human NCI-H522 cells incubated for 48 hrs by sulforhodamine B assay; conditions: NCI-H522, 48 h
NCI-H23 = assay: Growth inhibition of human NCI-H23 cells incubated for 48 hrs by sulforhodamine B assay; conditions: NCI-H23, 48 h
HCC 2998 = assay: Growth inhibition of human HCC2998 cells incubated for 48 hrs by sulforhodamine B assay; conditions: HCC 2998, 48 h
HT-29 = assay: Growth inhibition of human HT-29 cells incubated for 48 hrs by sulforhodamine B assay; conditions: HT-29, 48 h
HCT-15 = assay: Growth inhibition of human HCT15 cells incubated for 48 hrs by sulforhodamine B assay; conditions: HCT-15, 48 h
OVCAR-4 = assay: Growth inhibition of human OVCAR4 cells incubated for 48 hrs by sulforhodamine B assay; conditions: OVCAR-4, 48 h
SF-539 = assay: Growth inhibition of human SF539 cells incubated for 48 hrs by sulforhodamine B assay; conditions: SF-539, 48 h
786-0 = assay: Growth inhibition of human 786-0 cells incubated for 48 hrs by sulforhodamine B assay; conditions: 786-0, 48 h
K562 = assay: Growth inhibition of human K562 cells incubated for 48 hrs by sulforhodamine B assay; conditions: K562, 48 h
A498 = assay: Growth inhibition of human A498 cells incubated for 48 hrs by sulforhodamine B assay; conditions: A498, 48 h
BT-549 = assay: Growth inhibition of human BT549 cells incubated for 48 hrs by sulforhodamine B assay; conditions: BT-549, 48 h
SF-295 = assay: Growth inhibition of human SF295 cells incubated for 48 hrs by sulforhodamine B assay; conditions: SF-295, 48 h
SK-MEL-5 = assay: Growth inhibition of human SK-MEL-5 cells incubated for 48 hrs by sulforhodamine B assay; conditions: SK-MEL-5, 48 h
T47D = assay: Growth inhibition of human T47D cells incubated for 48 hrs by sulforhodamine B assay
ACHN = assay: Growth inhibition of human ACHN cells incubated for 48 hrs by sulforhodamine B assay
HOP-92 = assay: Growth inhibition of human HOP92 cells incubated for 48 hrs by sulforhodamine B assay; conditions: HOP-92, 48 h
TK-10 = assay: Growth inhibition of human TK10 cells incubated for 48 hrs by sulforhodamine B assay; conditions: TK-10, 48 h
MDA-MB-468 = assay: Growth inhibition of human MDA-MB-468 cells incubated for 48 hrs by sulforhodamine B assay; conditions: MDA-MB-468, 48 h
SF-268 = assay: Growth inhibition of human SF268 cells incubated for 48 hrs by sulforhodamine B assay; conditions: SF-268, 48 h
MDA-MB-435 = assay: Growth inhibition of human MDA-MB-435 cells incubated for 48 hrs by sulforhodamine B assay; conditions: MDA-MB-435, 48 h
UACC-62 = assay: Growth inhibition of human UACC62 cells incubated for 48 hrs by sulforhodamine B assay; conditions: UACC-62, 48 h
RXF 393 = assay: Growth inhibition of human RXF393 cells incubated for 48 hrs by sulforhodamine B assay; conditions: RXF 393, 48 h
SR = assay: Growth inhibition of human SR cells incubated for 48 hrs by sulforhodamine B assay
COLO 205 = assay: Growth inhibition of human COLO205 cells incubated for 48 hrs by sulforhodamine B assay; conditions: COLO 205, 48 h
OVCAR-8 = assay: Growth inhibition of human OVCAR8 cells incubated for 48 hrs by sulforhodamine B assay; conditions: OVCAR-8, 48 h
KM12 = assay: Growth inhibition of human KM12 cells incubated for 48 hrs by sulforhodamine B assay; conditions: KM12, 48 h
RPMI-8226 = assay: Growth inhibition of human RPMI8226 cells incubated for 48 hrs by sulforhodamine B assay; conditions: RPMI-8226, 48 h
HOP-62 = assay: Growth inhibition of human HOP62 cells incubated for 48 hrs by sulforhodamine B assay; conditions: HOP-62, 48 h
Hs-578T = assay: Growth inhibition of human Hs 578T cells incubated for 48 hrs by sulforhodamine B assay
SNB-19 = assay: Growth inhibition of human SNB19 cells incubated for 48 hrs by sulforhodamine B assay; conditions: SNB-19, 48 h
MOLT-4 = assay: Growth inhibition of human MOLT4 cells incubated for 48 hrs by sulforhodamine B assay; conditions: MOLT-4, 48 h
DU-145 = assay: Growth inhibition of human DU145 cells incubated for 48 hrs by sulforhodamine B assay; conditions: DU-145, 48 h
NCI-H226 = assay: Growth inhibition of human NCI-H226 cells incubated for 48 hrs by sulforhodamine B assay; conditions: NCI-H226, 48 h
NCI-H460 = assay: Growth inhibition of human NCI-H460 cells incubated for 48 hrs by sulforhodamine B assay; conditions: NCI-H460, 48 h
PC-3 = assay: Growth inhibition of human PC3 cells incubated for 48 hrs by sulforhodamine B assay; conditions: PC-3, 48 h
UO-31 = assay: Growth inhibition of human UO31 cells incubated for 48 hrs by sulforhodamine B assay; conditions: UO-31, 48 h
IGROV-1 = assay: Growth inhibition of human IGROV1 cells incubated for 48 hrs by sulforhodamine B assay; conditions: IGROV-1, 48 h
A549 = assay: Growth inhibition of human A549/ATCC cells incubated for 48 hrs by sulforhodamine B assay; conditions: A549, 48 h
M14 = assay: Growth inhibition of human M14 cells incubated for 48 hrs by sulforhodamine B assay; conditions: M14, 48 h
MDA-MB-231 = assay: Growth inhibition of human MDA-MB-231 cells incubated for 48 hrs by sulforhodamine B assay; conditions: MDA-MB-231, 48 h
HL-60 = assay: Growth inhibition of human HL60 cells incubated for 48 hrs by sulforhodamine B assay; conditions: HL-60, 48 h
SW-620 = assay: Growth inhibition of human SW620 cells incubated for 48 hrs by sulforhodamine B assay; conditions: SW-620, 48 h
NCI-H322M = assay: Growth inhibition of human NCI-H322M cells incubated for 48 hrs by sulforhodamine B assay
CAKI-1 = assay: Growth inhibition of human Caki1 cells incubated for 48 hrs by sulforhodamine B assay; conditions: CAKI-1, 48 h
OVCAR-3 = assay: Growth inhibition of human OVCAR3 cells incubated for 48 hrs by sulforhodamine B assay; conditions: OVCAR-3, 48 h
SK-OV-3 = assay: Growth inhibition of human SKOV3 cells incubated for 48 hrs by sulforhodamine B assay; conditions: SK-OV-3, 48 h
CCRF-CEM = assay: Growth inhibition of human CCRF-CEM cells incubated for 48 hrs by sulforhodamine B assay

## CNCCCNCCCCNCCCN1C(=O)c2ccc3c4c(ccc(c24)C1=O)C(=O)N(CCCNCc1ccccc1OC)C3=O
NCI/ADR-RES
  GI50: 7.09 µM
NCI-H522
  GI50: 5.62 µM
NCI-H23
  GI50: 2.99 µM
HCC 2998
  GI50: 3.12 µM
HT-29
  GI50: 3.36 µM
HCT-15
  GI50: 4.27 µM
OVCAR-4
  GI50: 1.7 µM
SF-539
  GI50: 2.04 µM
786-0
  GI50: 3.36 µM
K562
  GI50: 2.78 µM
A498
  GI50: 1.78 µM
BT-549
  GI50: 3.4 µM
SF-295
  GI50: 1.33 µM
SK-MEL-5
  GI50: 0.813 µM
T47D
  GI50: 0.342 µM
ACHN
  GI50: 2.86 µM
HOP-92
  GI50: 2.21 µM
TK-10
  GI50: 4.08 µM
MDA-MB-468
  GI50: 1.89 µM
SF-268
  GI50: 3.51 µM
MDA-MB-435
  GI50: 0.795 µM
UACC-62
  GI50: 0.711 µM
RXF 393
  GI50: 3.82 µM
SR
  GI50: 4.42 µM
COLO 205
  GI50: 1.38 µM
OVCAR-8
  GI50: 2.89 µM
KM12
  GI50: 2.75 µM
RPMI-8226
  GI50: 3 µM
HOP-62
  GI50: 2.33 µM
Hs-578T
  GI50: 2.9 µM
SNB-19
  GI50: 3.79 µM
MOLT-4
  GI50: 5.21 µM
DU-145
  GI50: 5.09 µM
NCI-H226
  GI50: 2.17 µM
NCI-H460
  GI50: 2.53 µM
PC-3
  GI50: 7.45 µM
UO-31
  GI50: 4.31 µM
IGROV-1
  GI50: 3.02 µM
A549
  GI50: 3.45 µM
M14
  GI50: 2.63 µM
MDA-MB-231
  GI50: 4.63 µM
HL-60
  GI50: 3.68 µM
SW-620
  GI50: 2.16 µM
NCI-H322M
  GI50: 2.21 µM
CAKI-1
  GI50: 2.25 µM
OVCAR-3
  GI50: 2.93 µM
SK-OV-3
  GI50: 6.19 µM
CCRF-CEM
  GI50: 2.77 µM

## COc1ccccc1CNCCCN1C(=O)c2ccc3c4c(ccc(c24)C1=O)C(=O)N(CCCCNCCCN)C3=O
NCI/ADR-RES
  GI50: 5.99 µM
NCI-H522
  GI50: 1.47 µM
NCI-H23
  GI50: 0.747 µM
HCC 2998
  GI50: 0.81 µM
HT-29
  GI50: 0.998 µM
HCT-15
  GI50: 4.46 µM
OVCAR-4
  GI50: 0.713 µM
SF-539
  GI50: 1.69 µM
786-0
  GI50: 2.27 µM
K562
  GI50: 1.9 µM
A498
  GI50: 4.4 µM
BT-549
  GI50: 2.23 µM
SF-295
  GI50: 3.66 µM
SK-MEL-5
  GI50: 0.73 µM
T47D
  GI50: 1.3 µM
ACHN
  GI50: 3.73 µM
HOP-92
  GI50: 2.04 µM
TK-10
  GI50: 2.62 µM
MDA-MB-468
  GI50: 0.284 µM
SF-268
  GI50: 1.66 µM
MDA-MB-435
  GI50: 0.96 µM
UACC-62
  GI50: 1.1 µM
RXF 393
  GI50: 0.886 µM
SR
  GI50: 0.038 µM
COLO 205
  GI50: 0.69 µM
OVCAR-8
  GI50: 0.826 µM
KM12
  GI50: 2.55 µM
RPMI-8226
  GI50: 1.95 µM
HOP-62
  GI50: 2.98 µM
Hs-578T
  GI50: 2.31 µM
SNB-19
  GI50: 1.32 µM
MOLT-4
  GI50: 0.939 µM
DU-145
  GI50: 1.59 µM
NCI-H226
  GI50: 2.26 µM
NCI-H460
  GI50: 0.767 µM
PC-3
  GI50: 2.3 µM
UO-31
  GI50: 3.52 µM
IGROV-1
  GI50: 1.44 µM
A549
  GI50: 1.58 µM
M14
  GI50: 1.9 µM
MDA-MB-231
  GI50: 2.68 µM
HL-60
  GI50: 1.06 µM
SW-620
  GI50: 0.641 µM
NCI-H322M
  GI50: 2.15 µM
CAKI-1
  GI50: 13.2 µM
OVCAR-3
  GI50: 0.338 µM
SK-OV-3
  GI50: 4.03 µM
CCRF-CEM
  GI50: 0.7 µM

## COc1ccccc1CNCCCN1C(=O)c2ccc3c4c(ccc(c24)C1=O)C(=O)N(CCCN)C3=O
NCI/ADR-RES
  GI50: 2.9 µM
NCI-H522
  GI50: 1.57 µM
NCI-H23
  GI50: 1.34 µM
HCC 2998
  GI50: 1.86 µM
HT-29
  GI50: 1.31 µM
HCT-15
  GI50: 1.41 µM
OVCAR-4
  GI50: 0.257 µM
SF-539
  GI50: 1.3 µM
786-0
  GI50: 1.94 µM
K562
  GI50: 1.09 µM
A498
  GI50: 1.54 µM
BT-549
  GI50: 1.66 µM
SF-295
  GI50: 1.43 µM
SK-MEL-5
  GI50: 0.246 µM
T47D
  GI50: 1.17 µM
ACHN
  GI50: 1.66 µM
HOP-92
  GI50: 2.1 µM
TK-10
  GI50: 1.64 µM
MDA-MB-468
  GI50: 0.406 µM
SF-268
  GI50: 1.23 µM
MDA-MB-435
  GI50: 0.196 µM
UACC-62
  GI50: 0.369 µM
RXF 393
  GI50: 0.377 µM
SR
  GI50: 0.167 µM
COLO 205
  GI50: 0.57 µM
OVCAR-8
  GI50: 0.421 µM
KM12
  GI50: 1.62 µM
RPMI-8226
  GI50: 1.11 µM
HOP-62
  GI50: 1.24 µM
Hs-578T
  GI50: 1.74 µM
SNB-19
  GI50: 1.51 µM
MOLT-4
  GI50: 0.433 µM
DU-145
  GI50: 1.38 µM
NCI-H226
  GI50: 1.78 µM
NCI-H460
  GI50: 0.524 µM
PC-3
  GI50: 1.66 µM
UO-31
  GI50: 1.5 µM
IGROV-1
  GI50: 1 µM
A549
  GI50: 1.76 µM
M14
  GI50: 1.06 µM
MDA-MB-231
  GI50: 1.59 µM
HL-60
  GI50: 1.56 µM
SW-620
  GI50: 0.442 µM
NCI-H322M
  GI50: 1.66 µM
CAKI-1
  GI50: 1.76 µM
OVCAR-3
  GI50: 0.301 µM
SK-OV-3
  GI50: 2.67 µM
CCRF-CEM
  GI50: 0.433 µM
